From patent publication US11905277B1, “2-alkyloxy-6-(2-oxo-2H-1-benzopyran-3-yl)-4-phenylpyridine-3-carbonitrile as an antimicrobial compound” (KING FAISAL UNIVERSITY, priority 2023, dated 2024)

Key:
[1] = tested on: Chrysosporium keratinophilum; test: Agar plate disc-diffusion, antifungal activity (inhibition zone); format: cell-based; details: Sabouraud's dextrose agar, 72 h, DMSO zone subtracted
Experimental: (§1) The agar plate disc-diffusion method was applied. Sterilized filter papers (6 mm in diameter) were wetted with 10 μL of a solution of 2-ethoxy-6-(2-oxo-2H-1-benzopyran-3-yl)-4-phenylpyridine-3-carbonitrile (1) and 2-methoxy-6-(2-oxo-2H-1-benzopyran-3-yl)-4-phenylpyridine-3-carbonitrile (2) to be tested, containing […], and the discs were allowed to air dry. The discs were then placed onto the surface of agar plates (nutrient agar for bacteria and Sabouraud's dextrose agar for fungi) seeded with the test organism. Each plate contained 15 mL of the agar medium, previously seeded with 0.2 mL of the broth culture of each organism pregrown for 18 hours. The plates were incubated at 37° C. for 48 h, and 72 h for fungi. The inhibition zones were measured in mm. Discs impregnated with DMSO were used as a control, and its inhibition zone was subtracted from the tested compound actual inhibition zone.

Aspergillus flavus = test: as above; format: cell-based; details: Sabouraud's dextrose agar, 72 h, DMSO zone subtracted
Experimental: as §1

Staphylococcus aureus = test: Agar plate disc-diffusion, antibacterial activity (inhibition zone); format: cell-based; details: nutrient agar, 37° C., 48 h, DMSO zone subtracted
Experimental: as §1

Escherichia coli = test: as above; format: cell-based; details: nutrient agar, 37° C., 48 h, DMSO zone subtracted
Experimental: as §1

Bacillus cereus = test: as above; format: cell-based; details: nutrient agar, 37° C., 48 h, DMSO zone subtracted
Experimental: as §1

Pseudomonas aeruginosa = test: as above; format: cell-based; details: nutrient agar, 37° C., 48 h, DMSO zone subtracted
Experimental: as §1

different microbes = test: Antimicrobial testing, overall statement on Tables 1 and 2; format: cell-based; details: summary of Tables 1 and 2; bacteria and fungi tested
Experimental: as §1
Their antibacterial activity was screened against gram positive bacteria namely Bacillus cereus and Staphylococcus aureus and gram-negative bacterial strains namely Pseudomonas aeruginosa and Escherichia coli, while their antifungal activity was screened against Aspergillus flavus and Chrysosporium keratinophilum.

[2] = A = concentration of comp. = 10,000 μL
[3] = B = concentration of comp. = 30.000 μL
[4] = C = concentration of comp. = 50,000 μL

| Structure (SMILES) | inhibition zone [1, 2] | inhibition zone [1, 3] | inhibition zone [1, 4] | inhibition zone (Aspergillus flavus; [2]) | inhibition zone (Aspergillus flavus; [3]) | inhibition zone (Aspergillus flavus; [4]) | inhibition zone (Staphylococcus aureus; [2]) | inhibition zone (Staphylococcus aureus; [3]) | inhibition zone (Staphylococcus aureus; [4]) | inhibition zone (Escherichia coli; [2]) | inhibition zone (Escherichia coli; [3]) | inhibition zone (Escherichia coli; [4]) | inhibition zone (Bacillus cereus; [2]) | inhibition zone (Bacillus cereus; [3]) | inhibition zone (Bacillus cereus; [4]) | inhibition zone (Pseudomonas aeruginosa; [2]) | inhibition zone (Pseudomonas aeruginosa; [3]) | inhibition zone (Pseudomonas aeruginosa; [4]) | antimicrobial activity (in words) (different microbes) | melting point |
| --- | --- | --- | --- | --- | --- | --- | --- | --- | --- | --- | --- | --- | --- | --- | --- | --- | --- | --- | --- | --- |
| O=C(O)c1cn(C2CC2)c2cc(N3CCNCC3)c(F)cc2c1=O [Cip., reference compound] | 29 mm | 30 mm | 53 mm | 29 mm | 30 mm | 42 mm | 43 mm | 44 mm | 53 mm | 30 mm | 39 mm | 60 mm | 29 mm | 30 mm | 42 mm | 29 mm | 30 mm | 53 mm |  |  |
| CCOc1nc(-c2cc3ccccc3oc2=O)cc(-c2ccccc2)c1C#N [Compound 1, 2-ethoxy-6-(2-oxo-2H-1-benzopyran-3-yl)-4-phenylpyridine-3-carbonitrile] | 22 mm | 31 mm | 37 mm | 29 mm | 33 mm | 41 mm | 11 mm | 19 mm | 21 mm | 38 mm | 43 mm | 48 mm | 31 mm | 36 mm | 43 mm | 25 mm | 32 mm | 40 mm | high antimicrobial activities |  |
| COc1nc(-c2cc3ccccc3oc2=O)cc(-c2ccccc2)c1C#N [Compound 2, 2-methoxy-6-(2-oxo-2H-1-benzopyran-3-yl)-4-phenylpyridine-3-carbonitrile] | 31 mm | 39 mm | 47 mm | 17 mm | 21 mm | 29 mm | 15 mm | 22 mm | 25 mm | 37 mm | 43 mm | 49 mm | 33 mm | 38 mm | 44 mm | 25 mm | 34 mm | 41 mm | high antimicrobial activities | 149 to 150 °C |
